Laboratory results published in patent US7973006B2, “Antibacterial agent based on fatty acid esters of hydroxy carboxylic acid acids” (Purac Biochem B.V., priority 2007, dated 2011).
“And” between values parts separate entries of the source, which are not always exact repeats. Equal values may be shown once.

Experiments:
[1] = system: Escherichia coli (ATCC 8739); assay: Bioscreen growth rate in brain heart infusion broth with lactylate and polylysine; format: cell-based
[2] = system: Escherichia coli serotype O157:H7 (ATCC 700728); assay: as above; format: cell-based
Protocol: (§1) The following cultures were used in a study: Escherichia coli serotype O157:H7 (ATCC 700728), Salmonella typhimurium (ATCC 13311) and Salmonella entiritidis (ATCC 13076). All cultures were transferred daily in screw-capped tubes containing 10 ml brain heart infusion broth. Cultures were incubated at 30° C. without agitation. Brain heart infusion broth was prepared with increasing amounts of lactylate and polylysine. The concentration range for the caprylic (C8) lactylate was as from 0 to 0.45% in 10 0.05% steps, for the capric (C10) lactylate was as from 0 to 0.09% in 10 0.01% steps, for the lauric (C12) lactylate was as from 0 to 0.009% in 10 0.001% steps and for the tetradecanoic (C14) lactylate was as from 0 to 0.009% in 10 0.001% steps. Lactylates were combined with polylysine. The concentration range for the polylysine was as from 0 to 0.0675% in 10 0.0075% steps. […] The pH of the media was adjusted to 6.1-6.2 with 1 N HCl or 1 N NaOH. Media were prepared in 10 ml quantities and sterilized by filtration. 300 μl of each medium was transferred to a panel of a sterile Bioscreen® honeycomb 100 well plate. Well plates were inoculated with 5 μl of a culture that was grown overnight in brain heart infusion broth using a sterile 5 μl repeating dispenser. Growth rates were determined with a Bioscreen® C that kinetically measures the development of turbidity by vertical photometry. The plates were incubated for 16-24 hours at 37° C., the optical density of the cultures was measured every 30 minutes at 420-580 nm using a wide band filter. The Bioscreen® measures at set time intervals the optical density of the cultures. […] The purpose of further data processing is to ascertain whether two […] act independently of each other or whether they stimulate each other in their inhibitory action (synergy) or cancel out each other inhibitory effect (antagonism). When a certain compound has no effect on an organism the specific growth rate of this organism (μ) can be expressed as a function (f) of the growth limiting substrate concentration (s) by for example the Monod equation, which reads: μ=μmax·s/(Ks+s), where μmax represents the maximum specific growth rate, s the standing concentration of the growth limiting substrate in the medium and Ks the substrate concentration where μ=0.5μmax. However, when the presence of an inhibitor P affects cell growth the function f for μ must be modified i.e. μ=f(s,p), where p represents the concentration of inhibitor P. Numerous studies of growth inhibition kinetics of bacteria have shown that many inhibitors behave as non-competitive inhibitors. This implies that only the maximum specific growth rate (μmax) value and not the affinity (Ks) is affected. Therefore the specific growth rate in the presence of inhibitor can be written as: μ=μi·s/(Ks+s), where μi is the maximal specific growth rate in the presence of a inhibitor P. The relationship between μi and μmax and the concentration of the inhibitor P was describes using the Logistic Dose Response equation, which reads: μi/μmax=1/(1+(p/p0.5)^b) (Jungbauer, A. (2001). The logistic dose response function: a robust fitting function for transition phenomena in life sciences. J. Clinical Ligand Assay 24: 270-274). In this equation p represents the concentration of inhibitor P and p0.5 the concentration of P where μi=0.5μmax; μmax is the maximum specific growth rate that is the specific growth rate in the absence of inhibitor P, b is a dimensionless quantity, which determines the relationship between μi and p. Combining the Monod and Logistic Dose Response equation it can be written as: μ=μmax(s/Ks+s)/(1+(p/p0.5)^b). In batch culture where s is usually many times higher than Ks this equation reduces to μ=μmax/(1+(p/p0.5)^b). When comparing different organisms grown under the same conditions, or the same organism grown under different conditions, it is more meaningful to use relative growth rate, rather than absolute growth rates as standards of comparison. […]

[3] = system: Salmonella typhimurium (ATCC 13311); assay: as above; format: cell-based
Protocol: as §1

[4] = system: Salmonella entiritidis (ATCC 13076); assay: as above; format: cell-based
Protocol: as §1

[5] = system: Salmonella Typhimurium ATCC 13311; assay: Decontamination of inoculated chicken filets, surviving cell count; format: cell-based; settings: for Salmonella Typhimurium on chicken filets: individual, 12° C.
Protocol: Salmonella Typhimurium ATCC 13311 and Escherichia coli O157:H7 ATCC 700728 were grown in sterile screw capped tubes containing Brain heart infusion broth for 18-24 hours at 30° C.
Chicken filets (150-200 g) were trimmed, vacuum packaged and stored at 4-7° C. Filets were subsequently sterilized by gamma-irradiation (average radiation dose: 12 kiloGray).
1 ml of an overnight culture of Salmonella Typhimurium in brain heart infusion both was diluted 1000 times with sterile 0.8% (w/v) NaCl and 0.1% (w/v) peptone. 0.5 ml of this diluted culture was transferred to one side of the filet. The inoculum was distributed by gently rubbing the entire surface of the filet. This was repeated for the other side of the filet. Inoculation was carried out at 6° C. Inoculated filets were rested for 60-120 min at 6° C. to allow attachment of the cells.
Chicken filets were briefly dipped and completely submersed in 1 l of a solution containing the appropriate formulation and then transferred to 400 ml Bagfilter® lateral filter bags (Interscience, St Nom, France) containing 5 ml of the appropriate formulation. Bags were vacuum-sealed and incubated at 12° C. for up to 7 days until further analysis. Time zero samples were plated within 30 min after dipping.
Surviving Salmonella Typhimurium on chicken filets were counted as follows: a sealed bag was opened and to this was added 2 times the net weight sterile dilution fluid ([…] NaCl and 0.1% (w/v) bacteriological peptone). Duplicate filets were homogenized for 1 min. in a Bagmixer® 400 paddle labblender (Interscience, St Nom, France). 50 μl of the homogenates or dilutions thereof were plated on duplicate Salmonella chromogenic agar plates (CM1007) with cefsulodin, novobiocin supplement (SR0194) (Oxoid, Basingstoke, United Kingdom) using an Eddyjet type 1.23 spiral plater (IUL Instruments, Barcelona, Spain). Plates were incubated for 24-48 hours at 30° C. and then counted. Salmonella numbers were expressed as log10 colony forming units per ml homogenate.
The compositions of the formulations that were studied are shown in Table 2. ε-Polylysine and lactylates were dissolved in demineralised water and sterilized for 20 min at 120° C.

Candida albicans = settings: EP 1000542; cited from earlier work
Enterococcus faecalis = settings: EP 1000542; cited from earlier work
[6] = 0.0225% (w/w) in broth, pH 6.1-6.2, 37° C.
[7] = 0.45% (w/w) in broth, pH 6.1-6.2, 37° C.

CCCCCCCCCC(=O)OC(C)C(=O)O (centres unmarked) [C10-lactylate, decanoyllactylate]
Observed Relative Growth Rate ([1]; 0.09% (w/w) in broth): 0.721 | Observed Relative Growth Rate ([2]; 0.09% (w/w) in broth): 0.766 | Observed Relative Growth Rate ([3]; 0.09% (w/w) in broth): 0.904 | Observed Relative Growth Rate ([4]; 0.09% (w/w) in broth): 0.912 | Salmonella Typhimurium on chicken filets ([5]; 0.05% (w/v), day 0): 3.75 log10 colony forming units (CFU)/ml | Salmonella Typhimurium on chicken filets ([5]; 0.05% (w/v), day 1): 3.95 log10 colony forming units (CFU)/ml | Salmonella Typhimurium on chicken filets ([5]; 0.05% (w/v), day 2): 4.45 log10 colony forming units (CFU)/ml | Salmonella Typhimurium on chicken filets ([5]; 0.05% (w/v), day 5): 6.87 log10 colony forming units (CFU)/ml | Salmonella Typhimurium on chicken filets ([5]; 0.05% (w/v), day 6): 6.83 log10 colony forming units (CFU)/ml | Salmonella Typhimurium on chicken filets ([5]; 0.05% (w/v), day 7): 7.52 log10 colony forming units (CFU)/ml

poly(imino(2-amino-1-oxo-1,6-hexanediyl)) [ε-polylysine]
Observed Relative Growth Rate [1, 6]: 0.4935 and 0.7370 and 0.4395 and 0.68 | Observed Relative Growth Rate [3, 6]: 0.943 and 0.9725 and 0.9520 | Observed Relative Growth Rate [4, 6]: 0.9645 and 0.971 and 0.9035 | Salmonella Typhimurium on chicken filets ([5]; 0.1% (w/v), day 0): 3.04 log10 colony forming units (CFU)/ml | Salmonella Typhimurium on chicken filets ([5]; 0.1% (w/v), day 1): 2.04 log10 colony forming units (CFU)/ml | Salmonella Typhimurium on chicken filets ([5]; 0.1% (w/v), day 2): 2.15 log10 colony forming units (CFU)/ml | Salmonella Typhimurium on chicken filets ([5]; 0.1% (w/v), day 5): 4.04 log10 colony forming units (CFU)/ml | Salmonella Typhimurium on chicken filets ([5]; 0.1% (w/v), day 6): 4.26 log10 colony forming units (CFU)/ml | Salmonella Typhimurium on chicken filets ([5]; 0.1% (w/v), day 7): 5.35 log10 colony forming units (CFU)/ml | reduction in numbers ([5]; single addition, after one day of incubation): 2 log10

CCCCCCCCCC(=O)OC(C)C(=O)OC(C)C(=O)[O-].[Na+] (centres unmarked) [sodium salt of capryl-lactyl-lactylate]
antimicrobial activity (Candida albicans): some antimicrobial activity | antimicrobial activity (Enterococcus faecalis): some antimicrobial activity

CCCCCCCC(=O)OC(C)C(=O)[O-].[Na+] (centres unmarked) [C8-lactylate, sodium salt of octanoyllactylate]
Observed Relative Growth Rate [1, 7]: 0.5625 | Observed Relative Growth Rate [2, 7]: 0.657 | Observed Relative Growth Rate [3, 7]: 0.4763 | Observed Relative Growth Rate [4, 7]: 0.58 | Salmonella Typhimurium on chicken filets ([5]; 0.2% (w/v), day 0): 3.85 log10 colony forming units (CFU)/ml | Salmonella Typhimurium on chicken filets ([5]; 0.2% (w/v), day 1): 4.1 log10 colony forming units (CFU)/ml | Salmonella Typhimurium on chicken filets ([5]; 0.2% (w/v), day 2): 4.29 log10 colony forming units (CFU)/ml | Salmonella Typhimurium on chicken filets ([5]; 0.2% (w/v), day 5): 6.27 log10 colony forming units (CFU)/ml | Salmonella Typhimurium on chicken filets ([5]; 0.2% (w/v), day 6): 7.35 log10 colony forming units (CFU)/ml | Salmonella Typhimurium on chicken filets ([5]; 0.2% (w/v), day 7): 7.42 log10 colony forming units (CFU)/ml
